Source: ChEMBL document CHEMBL3044945, “Synthesis of 1,3,5-trisubstituted pyrazoline nucleus containing compounds and screening for antimicrobial activity” (2012)
≈ marks a conversion by molar mass, not a printed value.

Tests used:
Type in all cases: functional
Aspergillus niger [1] = assay: Antifungal activity against Aspergillus niger MTCC 2546 after 24 to 48 hr by tube dilution method
Bacillus pumilus = assay: Antibacterial activity against Bacillus pumilus MTCC 1456 at 250 ug/ml after 48 hr by cup-plate method; conditions: MTCC 1456, 48 h, read-out: DIZ
Aspergillus niger [2] = assay: Antifungal activity against Aspergillus niger MTCC 2546 at 500 ug/ml after 48 hr by cup-plate method; conditions: MTCC 2546, 48 h, read-out: DIZ
Penicillium chrysogenum [3] = assay: Antifungal activity against Penicillium chrysogenum MTCC 161 at 500 ug/ml after 48 hr by cup-plate method; conditions: MTCC 161, 48 h, read-out: DIZ
Pseudomonas aeruginosa [4] = assay: Antibacterial activity against Pseudomonas aeruginosa MTCC 424 at 250 ug/ml after 48 hr by cup-plate method; conditions: MTCC 424, 48 h, read-out: DIZ
Penicillium chrysogenum [5] = assay: Antifungal activity against Penicillium chrysogenum MTCC 161 at 750 ug/ml after 48 hr by cup-plate method; conditions: MTCC 161, 48 h, read-out: DIZ
Escherichia coli [6] = assay: Antibacterial activity against Escherichia coli MTCC 1573 at 1250 ug/ml after 48 hr by cup-plate method; conditions: MTCC 1573, 48 h, read-out: DIZ
Pseudomonas fluorescens [7] = assay: Antibacterial activity against Pseudomonas fluorescens MTCC 2421 at 100 ug/ml after 48 hr by cup-plate method; conditions: MTCC 2421, 48 h, read-out: DIZ
Pseudomonas aeruginosa [8] = assay: Antibacterial activity against Pseudomonas aeruginosa MTCC 424 at 100 ug/ml after 48 hr by cup-plate method; conditions: MTCC 424, 48 h, read-out: DIZ
Pseudomonas aeruginosa [9] = assay: Antibacterial activity against Pseudomonas aeruginosa MTCC 424 at 1250 ug/ml after 48 hr by cup-plate method; conditions: MTCC 424, 48 h, read-out: DIZ
Bacillus subtilis [10] = assay: Antibacterial activity against Bacillus subtilis MTCC 441 at 500 ug/ml after 48 hr by cup-plate method; conditions: MTCC 441, 48 h, read-out: DIZ
Pseudomonas fluorescens [11] = assay: Antibacterial activity against Pseudomonas fluorescens MTCC 2421 at 1000 ug/ml after 48 hr by cup-plate method; conditions: MTCC 2421, 48 h, read-out: DIZ
Micrococcus luteus [12] = assay: Antibacterial activity against Micrococcus luteus MTCC 1538 at 1250 ug/ml after 48 hr by cup-plate method; conditions: MTCC 1538, 48 h, read-out: DIZ
Pseudomonas fluorescens [13] = assay: Antibacterial activity against Pseudomonas fluorescens MTCC 2421 at 1250 ug/ml after 48 hr by cup-plate method; conditions: MTCC 2421, 48 h, read-out: DIZ
Escherichia coli [14] = assay: Antibacterial activity against Escherichia coli MTCC 1573 at 250 ug/ml after 48 hr by cup-plate method; conditions: MTCC 1573, 48 h, read-out: DIZ
Pseudomonas fluorescens [15] = assay: Antibacterial activity against Pseudomonas fluorescens MTCC 2421 at 750 ug/ml after 48 hr by cup-plate method; conditions: MTCC 2421, 48 h, read-out: DIZ
Penicillium chrysogenum [16] = assay: Antifungal activity against Penicillium chrysogenum MTCC 161 at 1250 ug/ml after 48 hr by cup-plate method; conditions: MTCC 161, 48 h, read-out: DIZ
Micrococcus luteus [17] = assay: Antibacterial activity against Micrococcus luteus MTCC 1538 after 24 to 48 hr by tube dilution method
Staphylococcus aureus [18] = assay: Antibacterial activity against Staphylococcus aureus MTCC 1430 at 1000 ug/ml after 48 hr by cup-plate method; conditions: MTCC 1430, 48 h, read-out: DIZ
Bacillus subtilis [19] = assay: Antibacterial activity against Bacillus subtilis MTCC 441 at 1250 ug/ml after 48 hr by cup-plate method; conditions: MTCC 441, 48 h, read-out: DIZ
Pseudomonas fluorescens [20] = assay: Antibacterial activity against Pseudomonas fluorescens MTCC 2421 at 250 ug/ml after 48 hr by cup-plate method; conditions: MTCC 2421, 48 h, read-out: DIZ
Penicillium chrysogenum [21] = assay: Antifungal activity against Penicillium chrysogenum MTCC 161 at 250 ug/ml after 48 hr by cup-plate method; conditions: MTCC 161, 48 h, read-out: DIZ
Penicillium chrysogenum [22] = assay: Antifungal activity against Penicillium chrysogenum MTCC 161 after 24 to 48 hr by tube dilution method
Escherichia coli [23] = assay: Antibacterial activity against Escherichia coli MTCC 1573 at 1000 ug/ml after 48 hr by cup-plate method; conditions: MTCC 1573, 48 h, read-out: DIZ
Staphylococcus aureus [24] = assay: Antibacterial activity against Staphylococcus aureus MTCC 1430 at 250 ug/ml after 48 hr by cup-plate method; conditions: MTCC 1430, 48 h, read-out: DIZ
Pseudomonas aeruginosa [25] = assay: Antibacterial activity against Pseudomonas aeruginosa MTCC 424 at 500 ug/ml after 48 hr by cup-plate method; conditions: MTCC 424, 48 h, read-out: DIZ
Bacillus subtilis [26] = assay: Antibacterial activity against Bacillus subtilis MTCC 441 at 750 ug/ml after 48 hr by cup-plate method; conditions: MTCC 441, 48 h, read-out: DIZ
Aspergillus niger [27] = assay: Antifungal activity against Aspergillus niger MTCC 2546 at 250 ug/ml after 48 hr by cup-plate method; conditions: MTCC 2546, 48 h, read-out: DIZ

MIC (Aspergillus niger [1]): 50 µg/mL (≈ 139 µM)
MIC (Micrococcus luteus [17]): 30 µg/mL (≈ 83.2 µM)
MIC (Penicillium chrysogenum [22]): 50 µg/mL (≈ 139 µM)
Compound: NC(=O)N1N=C(c2cccc3ccccc23)CC1c1ccc([N+](=O)[O-])cc1 (stereo not drawn)
zone of inhibition at 250 µg/mL (Bacillus pumilus): 8 mm
zone of inhibition at 500 µg/mL (Aspergillus niger [2]): 13 mm
zone of inhibition at 500 µg/mL (Penicillium chrysogenum [3]): 10 mm
zone of inhibition at 250 µg/mL (Pseudomonas aeruginosa [4]): 10 mm
zone of inhibition at 750 µg/mL (Penicillium chrysogenum [5]): 11 mm
zone of inhibition at 1250 µg/mL (Escherichia coli [6]): 15 mm
zone of inhibition at 100 µg/mL (Pseudomonas fluorescens [7]): 8 mm
zone of inhibition at 100 µg/mL (Pseudomonas aeruginosa [8]): 9 mm
zone of inhibition at 1250 µg/mL (Pseudomonas aeruginosa [9]): 15 mm
zone of inhibition at 500 µg/mL (Bacillus subtilis [10]): 13 mm
zone of inhibition at 1000 µg/mL (Pseudomonas fluorescens [11]): 12 mm
zone of inhibition at 1250 µg/mL (Micrococcus luteus [12]): 11 mm
zone of inhibition at 1250 µg/mL (Pseudomonas fluorescens [13]): 14 mm
zone of inhibition at 250 µg/mL (Escherichia coli [14]): 10 mm
zone of inhibition at 750 µg/mL (Pseudomonas fluorescens [15]): 11 mm
zone of inhibition at 1250 µg/mL (Penicillium chrysogenum [16]): 13 mm
zone of inhibition at 1000 µg/mL (Staphylococcus aureus [18]): 12 mm
zone of inhibition at 1250 µg/mL (Bacillus subtilis [19]): 16 mm
zone of inhibition at 250 µg/mL (Pseudomonas fluorescens [20]): 9 mm
zone of inhibition at 250 µg/mL (Penicillium chrysogenum [21]): 9 mm
zone of inhibition at 1000 µg/mL (Escherichia coli [23]): 13 mm
zone of inhibition at 250 µg/mL (Staphylococcus aureus [24]): 9 mm
zone of inhibition at 500 µg/mL (Pseudomonas aeruginosa [25]): 11 mm
zone of inhibition at 750 µg/mL (Bacillus subtilis [26]): 14 mm
zone of inhibition at 250 µg/mL (Aspergillus niger [27]): 11 mm
